Assay results from patent US11440913B2, “Aminoimidazopyridazines as kinase inhibitors” (BRISTOL-MYERS SQUIBB COMPANY, priority 2017, dated 2022).
Where a name gives a salt, the structure may show the parent alone. Read-outs that look alike come from different tables or passages of the source.

Columns and labels:
[1] = tested on: MLKL phosphorylation in HT29-L23 human colorectal adenocarcinoma cells; assay: MLKL Phosphorylation High-Content Assay; assay type: cell-based; details: 6 h, necroptosis induced with TNFα, SMAC mimetic and Z-VAD, read-out: pMLKL (IC50)
In short: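 HT29-L23 cells pretreated 30 min at 37 °C with compound (6.25 to 0.106 μM final), then necroptosis induced with TNFα 35 ng/mL, SMAC mimetic 700 nM and Z-VAD 140 nM for 6 h. Fixed cells immunostained for MLKL pS358 and imaged; IC50 and Ymax from 4-parameter logistic fit.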

[2] = target: His-GST-TVMV-hRIPK1(1-324) (Homo sapiens (Human), UniProt Q13546); assay: RIPK1 HTRF Binding Assay; details: HTRF binding, 1 h at rt; read-out: RIPK1 (IC50)
In short: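 HTRF probe-displacement binding: 1 nM His-GST-TVMV-hRIPK1(1-324) (baculovirus construct), 90.6 nM probe, 0.2 nM anti-GST-Tb in 20 mM HEPES, 10 mM MgCl2, 0.015% Brij-35, 4 mM DTT, 0.05 mg/mL BSA. Incubated 1 h at rt; FRET 520/495 nm ratio, inhibition relative to DMSO-only wells.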

His-GST-TVMV-hRIPK1(1-324), sequence (Q13546 1-324): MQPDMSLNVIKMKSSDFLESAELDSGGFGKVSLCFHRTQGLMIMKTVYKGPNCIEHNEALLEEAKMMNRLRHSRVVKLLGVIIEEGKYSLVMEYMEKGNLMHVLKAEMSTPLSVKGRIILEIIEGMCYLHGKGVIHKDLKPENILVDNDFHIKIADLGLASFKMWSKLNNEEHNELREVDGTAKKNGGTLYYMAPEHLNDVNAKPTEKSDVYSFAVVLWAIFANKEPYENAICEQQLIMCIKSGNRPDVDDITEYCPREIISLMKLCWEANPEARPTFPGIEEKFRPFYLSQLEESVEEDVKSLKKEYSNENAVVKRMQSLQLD

| SMILES | IC50 ([1]; Homo sapiens) [nM] | IC50 [2] [nM] | IC50 [1] [nM] |
| --- | --- | --- | --- |
| CC(=O)Nc1cn2nc(-c3cc(C(=O)NCc4cccc(OCC(F)(F)F)c4)c(C)nc3C)ccc2n1 [Example 73, 5-{2-acetamidoimidazo[1,2-b]pyridazin-6-yl}-2,6-dimethyl-N-{[3-(2,2,2-trifluoroethoxy)phenyl]methyl}pyridine-3-carboxamide] | 82 | 57 | – |
| [2H]C([2H])(NC(=O)c1cc(-c2ccc3nc(NC(C)=O)cn3n2)c(C)nc1C)c1cccc(C(F)(F)F)c1 [Example 74, 5-{2-acetamidoimidazo[1,2-b]pyridazin-6-yl}-2,6-dimethyl-N-{[3-(trifluoro-methyl)phenyl](deutero)methyl}pyridine-3-carboxamide, TFA] | 353 | 63 | – |
| [2H]C([2H])(NC(=O)c1cc(-c2ccc3nc(NC(C)=O)cn3n2)c(C)nc1C)c1cc(C(F)(F)F)ccc1F [Example 75, 5-{2-acetamidoimidazo[1,2-b]pyridazin-6-yl}-N-{[2-fluoro-5-(trifluoromethyl)phenyl](deutero)methyl}-2,6-dimethylpyridine-3-carboxamide] | 32 | 11 | – |
| [2H]C([2H])(NC(=O)c1cc(-c2ccc3nc(NC(C)=O)cn3n2)c(C)nc1C)c1cc(OC(F)(F)F)ccc1F [Example 76, 5-{2-acetamidoimidazo[1,2-b]pyridazin-6-yl}-N-{[2-fluoro-5-(trifluorometh-oxy)phenyl](deutero)methyl}-2,6-dimethylpyridine-3-carboxamide] | 8 | 3 | – |
| CC(=O)Nc1cn2nc(-c3cc(C(=O)NCc4cc(F)cc(F)c4OC4COC4)c(C)nc3C)ccc2n1 [Example 77, N-{[3,5-difluoro-2-(oxetan-3-yloxy)phenyl]methyl}-5-{2-acetamidoimidazo[1,2-b]pyridazin-6-yl}-2,6-dimethylpyridine-3-carboxamide] | 265 | 17 | – |
| CC(=O)Nc1cn2nc(-c3cc(C(=O)NCc4cc(F)cc(F)c4OC4CCOCC4)c(C)nc3C)ccc2n1 [Example 78, N-{[3,5-difluoro-2-(oxan-4-yloxy)phenyl]methyl}-5-{2-acetamidoimidazo[1,2-b]pyridazin-6-yl}-2,6-dimethylpyridine-3-carboxamide] | 21 | 16 | – |
| CC(=O)Nc1cn2nc(-c3cc(C(=O)NCc4cc(C(F)(F)F)ccc4F)c(C)nc3C)ccc2n1 [Example 80, 5-{2-acetamidoimidazo[1,2-b]pyridazin-6-yl}-N-{[2-fluoro-5-(trifluoromethyl)phenyl]methyl}-2,6-dimethylpyridine-3-carboxamide] | 15 | 14 | – |
| CC(=O)Nc1cn2nc(-c3cc(C(=O)NCc4cc(OC(F)(F)F)ccc4F)c(C)nc3C)ccc2n1 [Example 81, 5-{2-acetamidoimidazo[1,2-b]pyridazin-6-yl}-N-{[2-fluoro-5-(trifluoromethoxy)phenyl]methyl}-2,6-dimethylpyridine-3-carboxamide] | 2 | 5 | – |
| CC(=O)Nc1cn2nc(-c3cc(C(=O)NCC[C@H](O)c4ccc(Cl)cc4)c(C)nc3C)ccc2n1 [Example 82, N-[(3S)-3-(4-chlorophenyl)-3-hydroxypropyl]-5-{2-acetamidoimidazo[1,2-b]pyridazin-6-yl}-2,6-dimethylpyridine-3-carboxamide] | 18 | 21 | – |
| CC(=O)Nc1cn2nc(-c3cc(C(=O)NCc4ccccc4OCC4CC4)c(C)nc3C)ccc2n1 [Example 83, N-{[2-(cyclopropylmethoxy)phenyl]methyl}-5-{2-acetamidoimidazo[1,2-b]pyridazin-6-yl}-2,6-dimethylpyridine-3-carboxamide] | – | 5 | 7 |
| CC(=O)Nc1cn2nc(-c3cc(C(=O)NCc4cccnc4OCC4CCCC4)c(C)nc3C)ccc2n1 [Example 84, N-{[2-(cyclopentylmethoxy)pyridin-3-yl]methyl}-5-{2-acetamidoimidazo[1,2-b]pyridazin-6-yl}-2,6-dimethylpyridine-3-carboxamide] | 26 | 19 | – |
| CC(=O)Nc1cn2nc(-c3cc(C(=O)NCc4ccccc4OCC4CCCC4)c(C)nc3C)ccc2n1 [Example 85, N-{[2-(cyclopentylmethoxy)phenyl]methyl}-5-{2-acetamidoimidazo[1,2-b]pyridazin-6-yl}-2,6-dimethylpyridine-3-carboxamide] | 12 | 4 | – |
| CC(=O)Nc1cn2nc(-c3cc(C(=O)NCc4cc(F)cc(F)c4OCC4CC4)c(C)nc3C)ccc2n1 [Example 87, N-{[2-(cyclopropylmethoxy)-3,5-difluorophenyl]methyl}-5-{2-acetamidoimidazo[1,2-b]pyridazin-6-yl}-2,6-dimethylpyridine-3-carboxamide] | 3 | 3 | – |
| CC(=O)Nc1cn2nc(-c3cc(C(=O)NCc4cccc(OC(F)(F)F)c4)c(C)nc3C)ccc2n1 [Example 88, 5-{2-acetamidoimidazo[1,2-b]pyridazin-6-yl}-2,6-dimethyl-N-{[3-(trifluorometh-oxy)phenyl]methyl}pyridine-3-carboxamide] | 42 | 25 | – |
| CC(=O)Nc1cn2nc(-c3cc(C(=O)NCc4ccccc4OC(F)(F)F)c(C)nc3C)ccc2n1 [Example 89, 5-{2-acetamidoimidazo[1,2-b]pyridazin-6-yl}-2,6-dimethyl-N-{[2-(trifluoro-methoxy)phenyl]methyl}pyridine-3-carboxamide] | 88 | 38 | – |
| CC(=O)Nc1cn2nc(-c3cc(C(=O)NCc4cc(F)cc(F)c4OCC4CCCC4)c(C)nc3C)ccc2n1 [Example 90, N-{[2-(cyclopentylmethoxy)-3,5-difluorophenyl]methyl}-5-{2-acetamidoimidazo[1,2-b]pyridazin-6-yl}-2,6-dimethylpyridine-3-carboxamide] | 3 | 5 | – |
| Cc1nc(C)c(-c2ccc3nc(NC(=O)CO)cn3n2)cc1C(=O)NCc1cc(F)cc(F)c1O[C@H]1CCOC1 [Example 91, N-({3,5-difluoro-2-[(3S)-oxolan-3-yloxy]phenyl}methyl)-5-[2-(2-hydroxy-acetamido)imidazo[1,2-b]pyridazin-6-yl]-2,6-dimethylpyridine-3-carboxamide, TFA] | 442 | 61 | – |
| Cc1nc(C)c(-c2ccc3nc(NC(=O)CO)cn3n2)cc1C(=O)N[C@H](C)c1cc(C(F)(F)F)ccc1F [Example 92, N-[(1R)-1-[2-fluoro-5-(trifluoromethyl)phenyl]ethyl]-5-[2-(2-hydroxyacet-amido)imidazo[1,2-b]pyridazin-6-yl]-2,6-dimethylpyridine-3-carboxamide] | 127 | 48 | – |
| [2H]C([2H])(NC(=O)c1cc(-c2ccc3nc(NC(=O)CO)cn3n2)c(C)nc1C)c1cc(C(F)(F)F)ccc1F [Example 93, N-{[2-fluoro-5-(trifluoro-methyl)phenyl](deutero)methyl}-5-[2-(2-hydroxy-acetamido)imidazo[1,2-b]pyridazin-6-yl]-2,6-dimethylpyridine-3-carboxamide] | 129 | 50 | – |
| Cc1nc(C)c(-c2ccc3nc(NC(=O)CO)cn3n2)cc1C(=O)NCc1cc(C(F)(F)F)ccc1F [Example 94, N-{[2-fluoro-5-(trifluoromethyl)phenyl]methyl}-5-[2-(2-hydroxyacet-amido)imidazo[1,2-b]pyridazin-6-yl]-2,6-dimethylpyridine-3-carboxamide] | 87 | 77 | – |
